Reference: paper PMC5681660, “Reduced hepatitis B and D viral entry using clinically applied drugs as novel inhibitors of the bile acid transporter NTCP” (Scientific Reports, 2017)
Structures can show the parent of a compound that is named as a salt. Where two headings read alike, the source gives them in different places.

Experiments:
human NTCP [1] = target: T1, human NTCP (Homo sapiens, UniProt Q14973); experiment: Screening fluorescent competitive Myrcludex B-FITC binding assay (96-well, 10 µM drug)
T1 sequence (Q14973 1-349): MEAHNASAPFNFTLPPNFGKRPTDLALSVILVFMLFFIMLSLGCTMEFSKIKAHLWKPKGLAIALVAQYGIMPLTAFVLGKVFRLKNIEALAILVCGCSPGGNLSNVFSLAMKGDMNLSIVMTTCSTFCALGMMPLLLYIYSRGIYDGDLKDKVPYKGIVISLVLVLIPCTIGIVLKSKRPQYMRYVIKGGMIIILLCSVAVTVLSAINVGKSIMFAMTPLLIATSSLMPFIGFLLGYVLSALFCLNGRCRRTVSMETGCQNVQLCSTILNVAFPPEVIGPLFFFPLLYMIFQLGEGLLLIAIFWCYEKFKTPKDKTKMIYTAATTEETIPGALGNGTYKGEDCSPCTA

human NTCP [2] = target: T1, human NTCP; experiment: Screening taurocholate uptake assay (96-well, [14C]taurocholate, 10 µM drug)
[3] = Prestwick library screen, 10 µM drug, B-score of Myrcludex B-FITC binding
[4] = Prestwick library screen, 10 µM drug, B-score of taurocholate uptake
[5] = combined ranking from functional and binding assay B-scores
[6] = Prestwick library screen, Myrcludex B-FITC binding, 10 µM drug
[7] = Prestwick library screen, taurocholate uptake, 10 µM drug
[8] = ranking score beside the functional and binding assay B-scores of the screen
[9] = screen, 10 µM drug, Myrcludex B-FITC binding
[10] = combined ranking from functional and binding screening assays
[11] = screen, 10 µM drug, taurocholate uptake

## Cc1ccnc(NS(=O)(=O)c2ccc(N)cc2)n1 [Sulfamerazine]
Human NTCP [1]; [3]
  B-score binding assay: 0.205
Human NTCP [2]; [4]
  B-score functional assay: 1.015
Human NTCP [2]; [5]
  Ranking score: 923.898

## CC(C)NCC(O)COc1cccc2[nH]ccc12 (stereo not drawn) [Pindolol]
Human NTCP [1]; [6]
  B-score binding assay: 0.992
Human NTCP [2]; [7]
  B-score functional assay: -0.046
Human NTCP [2]; [8]
  Ranking score: 777.082

## CN[C@@H]1[C@@H](O)[C@@H](O[C@@H]2[C@@H](O)[C@H](O[C@H]3OC(CN)=CC[C@H]3N)[C@@H](N)C[C@H]2N)OC[C@]1(C)O [Sisomicin sulfate]
Human NTCP [1]; [3]
  B-score binding assay: 0.455
Human NTCP [2]; [4]
  B-score functional assay: 1.589
Human NTCP [2]; [5]
  Ranking score: 1018.48

## CCN1CCC[C@H]1CNC(=O)c1c(O)c(Cl)cc(Cl)c1OC [Raclopride]
Human NTCP [1]; [3]
  B-score binding assay: 0.374
Human NTCP [2]; [4]
  B-score functional assay: 0.507
Human NTCP [2]; [5]
  Ranking score: 891.19

## CC(C)C[C@H](CN)CC(=O)O [Pregabalin]
Human NTCP [1]; [3]
  B-score binding assay: 0.027
Human NTCP [2]; [4]
  B-score functional assay: 1.204
Human NTCP [2]; [5]
  Ranking score: 863.391

## Nc1ccn([C@H]2CC[C@@H](CO)O2)c(=O)n1 [Zalcitabine]
Human NTCP [1]; [6]
  B-score binding assay: -0.087
Human NTCP [2]; [7]
  B-score functional assay: 1.286
Human NTCP [2]; [8]
  Ranking score: 782.741

## NC(=O)CN1CCCC1=O [Piracetam]
Human NTCP [1]; [6]
  B-score binding assay: -0.345
Human NTCP [2]; [7]
  B-score functional assay: 0.881
Human NTCP [2]; [8]
  Ranking score: 661.843

## Nc1nc(=S)c2ncn([C@@H]3O[C@H](CO)[C@@H](O)[C@H]3O)c2[nH]1 [Thioguanosine]
Human NTCP [1]; [9]
  B-score binding assay: -0.655
Human NTCP [2]; [10]
  Ranking score: 366.332
Human NTCP [2]; [11]
  B-score functional assay: -0.426

## O=C1c2c(O)ccc(O)c2C(=O)c2c(NCCNCCO)ccc(NCCNCCO)c21 [Mitoxantrone dihydrochloride]
Human NTCP [1]; [6]
  B-score binding assay: -0.161
Human NTCP [2]; [7]
  B-score functional assay: 4.449
Human NTCP [2]; [8]
  Ranking score: 807.326

## NS(=O)(=O)c1cc2c(cc1Cl)NC(C(Cl)Cl)NS2(=O)=O (stereo not drawn) [Trichlormethiazide]
Human NTCP [1]; [3]
  B-score binding assay: 0.486
Human NTCP [2]; [4]
  B-score functional assay: 0.593
Human NTCP [2]; [5]
  Ranking score: 921.314

## CN1CCC(=C2c3ccccc3CCc3sccc32)CC1.O=C(O)CC(O)C(=O)O [Pizotifen malate]
Human NTCP [1]; [6]
  B-score binding assay: 0.057
Human NTCP [2]; [7]
  B-score functional assay: 0.156
Human NTCP [2]; [8]
  Ranking score: 745.131

## CCN(CC)CC#CCOC(=O)C(O)(c1ccccc1)C1CCCCC1 (stereo not drawn) [Oxybutynin chloride]
Human NTCP [1]; [6]
  B-score binding assay: 0.285
Human NTCP [2]; [7]
  B-score functional assay: 0.163
Human NTCP [2]; [8]
  Ranking score: 808.614

## COc1ccc(-c2cc(=S)ss2)cc1 [Anethole-trithione]
Human NTCP [1]; [6]
  B-score binding assay: -0.048
Human NTCP [2]; [7]
  B-score functional assay: 0.437
Human NTCP [2]; [8]
  Ranking score: 719.937

## Cc1ncc(C[n+]2csc(CCO)c2C)c(N)n1 [Thiamine hydrochloride]
Human NTCP [1]; [6]
  B-score binding assay: -0.051
Human NTCP [2]; [7]
  B-score functional assay: 1.872
Human NTCP [2]; [8]
  Ranking score: 830.8

## CN1C2CCCC1CC(NC(=O)c1nn(C)c3ccccc13)C2 (stereo not drawn) [Granisetron]
Human NTCP [1]; [6]
  B-score binding assay: -0.067
Human NTCP [2]; [7]
  B-score functional assay: 0.526
Human NTCP [2]; [8]
  Ranking score: 726.756

## COCCCOc1ccnc(C[S+]([O-])c2nc3ccccc3[nH]2)c1C (stereo not drawn) [Rabeprazole Sodium salt]
Human NTCP [1]; [6]
  B-score binding assay: -0.144
Human NTCP [2]; [7]
  B-score functional assay: 1.371
Human NTCP [2]; [8]
  Ranking score: 764.457

## CC(=O)OCC1=C(C(=O)O)N2C(=O)[C@@H](N)[C@H]2SC1 [Cephalosporanic acid, 7-amino]
Human NTCP [1]; [3]
  B-score binding assay: 0.15
Human NTCP [2]; [4]
  B-score functional assay: 0.531
Human NTCP [2]; [5]
  Ranking score: 845.501

## CC(=O)OC[C@H]1O[C@@H]([S-])[C@H](OC(C)=O)[C@@H](OC(C)=O)[C@@H]1OC(C)=O.CCP(CC)CC.[Au+] [Auranofin]
Human NTCP [1]; [6]
  B-score binding assay: -0.068
Human NTCP [2]; [7]
  B-score functional assay: 0.729
Human NTCP [2]; [8]
  Ranking score: 748.559

## O=c1oc2ccccc2c(O)c1Cc1c(O)c2ccccc2oc1=O [Dicumarol]
Human NTCP [1]; [9]
  B-score binding assay: 1.31
Human NTCP [2]; [10]
  Ranking score: 403.485
Human NTCP [2]; [11]
  B-score functional assay: -1.792

## O=C1C(O)=C([C@H]2CC[C@H](c3ccc(Cl)cc3)CC2)C(=O)c2ccccc21 [Atovaquone]
Human NTCP [1]; [6]
  B-score binding assay: 0.68
Human NTCP [2]; [7]
  B-score functional assay: -0.283
Human NTCP [2]; [8]
  Ranking score: 659.659

## OCCN(CCO)c1nc(N2CCCCC2)c2nc(N(CCO)CCO)nc(N3CCCCC3)c2n1 [Dipyridamole]
Human NTCP [1]; [9]
  B-score binding assay: -0.011
Human NTCP [2]; [10]
  Ranking score: 317.643
Human NTCP [2]; [11]
  B-score functional assay: -1.651

## O.O=P(O)(O)C(O)(Cc1cccnc1)P(=O)(O)O [Risedronic acid monohydrate]
Human NTCP [1]; [3]
  B-score binding assay: 0.727
Human NTCP [2]; [4]
  B-score functional assay: 1.315
Human NTCP [2]; [5]
  Ranking score: 1045.06

## Oc1ncnc2[nH]ncc12 [Allopurinol]
Human NTCP [1]; [6]
  B-score binding assay: 0.547
Human NTCP [2]; [7]
  B-score functional assay: 0.076
Human NTCP [2]; [8]
  Ranking score: 820.729

## CCOc1nc2cccc(C(=O)O)c2n1Cc1ccc(-c2ccccc2-c2nnn[nH]2)cc1 [Candesartan]
Human NTCP [1]; [6]
  B-score binding assay: 0.128
Human NTCP [2]; [7]
  B-score functional assay: 0.287
Human NTCP [2]; [8]
  Ranking score: 798.474

## OCCOCCN1CCN(C(c2ccccc2)c2ccc(Cl)cc2)CC1 (stereo not drawn) [Hydroxyzine dihydrochloride]
Human NTCP [1]; [9]
  B-score binding assay: -1.7
Human NTCP [2]; [10]
  Ranking score: 394.018
Human NTCP [2]; [11]
  B-score functional assay: 1.371

## Nc1c2c(nc3ccccc13)CCCC2 [Tacrine hydrochloride]
Human NTCP [1]; [6]
  B-score binding assay: 0.755
Human NTCP [2]; [7]
  B-score functional assay: -0.044
Human NTCP [2]; [8]
  Ranking score: 757.813

## NCCCNCCSP(=O)(O)O [Amifostine]
Human NTCP [1]; [6]
  B-score binding assay: 0.481
Human NTCP [2]; [7]
  B-score functional assay: 0.006
Human NTCP [2]; [8]
  Ranking score: 764.099

## NC(N)=Nc1nc(CSCCC(N)=NS(N)(=O)=O)cs1 [Famotidine]
Human NTCP [1]; [6]
  B-score binding assay: 0.039
Human NTCP [2]; [7]
  B-score functional assay: 0.754
Human NTCP [2]; [8]
  Ranking score: 828.628

## CCCNC(=O)NS(=O)(=O)c1ccc(Cl)cc1 [Chlorpropamide]
Human NTCP [1]; [6]
  B-score binding assay: -0.165
Human NTCP [2]; [7]
  B-score functional assay: 1.589
Human NTCP [2]; [8]
  Ranking score: 766.984

## Nc1ccn([C@@H]2O[C@H](CO)[C@@H](O)[C@@H]2O)c(=O)n1 [Cytarabine]
Human NTCP [1]; [3]
  B-score binding assay: 0.655
Human NTCP [2]; [4]
  B-score functional assay: 0.582
Human NTCP [2]; [5]
  Ranking score: 944.957

## O=P(O)(O)C(O)(Cn1ccnc1)P(=O)(O)O [Zoledronic acid hydrate]
Human NTCP [1]; [9]
  B-score binding assay: -0.262
Human NTCP [2]; [10]
  Ranking score: 422.203
Human NTCP [2]; [11]
  B-score functional assay: -0.476

## CCCN[C@H]1CCc2nc(N)sc2C1 [Pramipexole dihydrochloride]
Human NTCP [1]; [9]
  B-score binding assay: -0.164
Human NTCP [2]; [10]
  Ranking score: 303.528
Human NTCP [2]; [11]
  B-score functional assay: -1.48

## CN(C)CCC=C1c2ccccc2COc2ccccc21 [Doxepin hydrochloride]
Human NTCP [1]; [9]
  B-score binding assay: 0.002
Human NTCP [2]; [10]
  Ranking score: 385.759
Human NTCP [2]; [11]
  B-score functional assay: -1.158

## CCCC(C)C1(CC)C(=O)NC(=O)NC1=O (stereo not drawn) [Pentobarbital]
Human NTCP [1]
  B-score binding assay: 1.244
Human NTCP [2]
  B-score functional assay: -0.299
  Ranking score: 697.378

## Nc1nc(N)nc(-c2cc(Cl)ccc2Cl)n1 [Irsogladine maleate]
Human NTCP [1]; [6]
  B-score binding assay: -0.312
Human NTCP [2]; [7]
  B-score functional assay: 5.029
Human NTCP [2]; [8]
  Ranking score: 750.144

## COc1ccc(CC2c3cc(OC)c(OC)cc3CC[N+]2(C)CCC(=O)OCCCCCOC(=O)CC[N+]2(C)CCc3cc(OC)c(OC)cc3C2Cc2ccc(OC)c(OC)c2)cc1OC (stereo not drawn) [Atracurium besylate]
Human NTCP [1]; [3]
  B-score binding assay: 0.189
Human NTCP [2]; [4]
  B-score functional assay: 2.141
Human NTCP [2]; [5]
  Ranking score: 978.724

## CCn1cc(C(=O)O)c(=O)c2cc(F)c(N3CCNC(C)C3)c(F)c21 (stereo not drawn) [Lomefloxacin hydrochloride]
Human NTCP [1]; [6]
  B-score binding assay: 0.323
Human NTCP [2]; [7]
  B-score functional assay: 0.226
Human NTCP [2]; [8]
  Ranking score: 831.882

## Cc1ccccc1OCC(O)CO (stereo not drawn) [Mephenesin]
Human NTCP [1]; [6]
  B-score binding assay: 1.192
Human NTCP [2]; [7]
  B-score functional assay: -0.317
Human NTCP [2]; [8]
  Ranking score: 689.632

## CN1CCC(=C2c3ccccc3C=Cc3ccccc32)CC1 [Cyproheptadine hydrochloride]
Human NTCP [1]; [6]
  B-score binding assay: 0.492
Human NTCP [2]; [7]
  B-score functional assay: -0.111
Human NTCP [2]; [8]
  Ranking score: 690.33
